≈ marks a conversion by molar mass, not a printed value. Some results are limits rather than exact numbers.

The conditions of this data set: buffer; pH 7.4; 200.0 µM.
Take `Cc1ccc(S(=O)(=O)NCC(=O)NCC2CCCCC2)cc1C`: the kinetic solubility (commonly the concentration staying in solution when a stock, usually in DMSO, is diluted into the medium) was over 50.8 µg/mL. The figure for `Cc1cc(C)c(OCCCCCn2ccnc2)c(C)c1` is over 40.9 µg/mL. `Cc1cccc(C)c1NC(=O)N1C2CCC1CC(O)(c1cccnc1)C2` (stereo not drawn): the kinetic solubility was over 52.7 µg/mL.

Compound `COC(=O)c1ccc(CSC(=N)N)o1` displayed a solubility (kinetic) of 27.6 µg/mL (≈ 129 µM). In turn, `CCOc1ccc(C(=S)N2CCCC2)cc1OCC` yielded a solubility (kinetic) of 41.8 µg/mL (≈ 150 µM). To `CCCn1c(COc2ccccc2OC)nc2ccccc21` belongs 39.5 µg/mL (≈ 133 µM). In the case of `O=C(Nc1ccncc1)c1ccc([N+](=O)[O-])cc1Cl`, the kinetic solubility was 17.6 µg/mL (≈ 63.4 µM). Compound `CCN(c1ccccc1)S(=O)(=O)c1cc(NC(=O)CN2CCN(C)CC2)ccc1Cl.O=C(O)C(=O)O` displayed a solubility (kinetic) of over 81.2 µg/mL. In the case of `CC1CN(S(=O)(=O)c2ccc(C(=O)Nc3ccccc3F)cc2)CC(C)O1` (stereo not drawn), the solubility (kinetic) was over 58.9 µg/mL. To `CC(C(=O)NCc1ccccc1Cl)N1C(=O)c2ccccc2C1=O` (stereo not drawn) belongs over 51.4 µg/mL; to `Cc1ccc(NC(=O)c2cc3c(=O)oc4ccc(C)cc4c3s2)nc1`, under 0.4 µg/mL. `CCOc1ccc(N=CNc2ccc(OCC)cc2)cc1` returned a kinetic solubility of 33 µg/mL (≈ 116 µM). To `CCCCN1CC(O)=C(c2nc(-c3ccc(Br)cc3)cs2)C1=N` belongs under 0.3 µg/mL.

`COc1cccc(NC(=O)Nc2cc(C)on2)c1` came in with a kinetic solubility of over 37.1 µg/mL.

Take `CCOC(=O)c1cc([N+](=O)[O-])sc1NC(=O)CC`: the kinetic solubility amounted to 5.3 µg/mL (≈ 19.5 µM).

Compound `O=C(NCCc1ccc(F)cc1)N[C@@H](Cc1ccccc1)C(=O)O` had a solubility (kinetic) of over 49.6 µg/mL. To `O=C(c1cc2ccccc2o1)N1CCCC1` belongs over 32.3 µg/mL. On to `O=C(COC(=O)/C=C/c1ccccc1)NCc1cccs1`, for which the solubility (kinetic) turned out to be 17.7 µg/mL (≈ 58.7 µM). Take `Cc1ccc2c(c1)N(CC(=O)N1CCCC1)C(=O)C(C)O2` (stereo not drawn): the solubility (kinetic) is over 43.3 µg/mL. To `CS(=O)(=O)N1CCN(C(=O)Cc2ccc([N+](=O)[O-])cc2)CC1` belongs 49 µg/mL (≈ 150 µM); to `Cc1ccc(Nc2nc(N)c([N+](=O)[O-])c(NCCO)n2)cc1`, 18.7 µg/mL (≈ 61.5 µM). `O=c1c2c3c(sc2[nH]c(=S)n1Cc1ccco1)CCC3` gave a kinetic solubility of 34.6 µg/mL (≈ 114 µM). This solubility kinetic lies about 1.9-fold higher than the previous one. The figure for `O=C(NCC1CCCCC1)c1cccnc1Cl` is 31.7 µg/mL (≈ 125 µM); for `CO/N=C1\CCn2c1c(C)c1ccccc12` it is 0.8 µg/mL (≈ 3.73 µM); for `Cc1cccc(OCC(=O)NCCNC(=O)c2ccccn2)c1` it is over 47 µg/mL. The figure for `O=C(COC(=O)CNC(=O)c1ccccc1)NCc1ccc2c(c1)OCO2` is over 55.6 µg/mL. On to `COC(=O)c1cccc(Cn2cc([N+](=O)[O-])cn2)c1`, for which the kinetic solubility was over 39.2 µg/mL. `CC1(c2ccc3ccccc3c2)NC(=O)NC1=O` (stereo not drawn) showed a kinetic solubility of 29.3 µg/mL (≈ 122 µM). To `CCCC(=O)NNC(=O)CCC(=O)Nc1ccccc1Cl` belongs over 46.8 µg/mL; to `O=C(Nc1ccc(Cl)c(Cl)c1)c1ccc2c(c1)OCO2`, under 0.7 µg/mL; to `COc1ccc(C(=O)Nc2ccccc2C(=O)Nc2ccccn2)cc1`, under 0.2 µg/mL. The figure for `COc1ccccc1C1CCN(Cc2ccc(Cl)c(Cl)c2)CC1` is under 0.8 µg/mL; for `COc1ccc(N2CC(C(=O)N3CCCC(C)C3)CC2=O)cc1` (stereo not drawn) it is over 47.5 µg/mL; for `CCCCn1c(=O)c(C(=O)NCc2ccco2)c(O)c2ccccc21` it is under 0.4 µg/mL. In the case of `CSc1ncccc1C(=O)NCc1nnc2ccccn12`, the solubility (kinetic) is over 44.9 µg/mL. Turning to `CCC(C)c1ccccc1NC(=S)NC(=O)c1ccco1` (stereo not drawn), the solubility (kinetic) stood at 6 µg/mL (≈ 19.8 µM). As to `CCn1c(=O)c2ccccc2n(CC(=O)NC2CCCCC2)c1=O`, the kinetic solubility was determined as 15.4 µg/mL (≈ 46.8 µM). This solubility kinetic is about 2.6-fold higher than that of the compound before. The figure for `O=C(Nc1ccccc1C(=O)NCCCN1CCOCC1)c1ccccc1` is over 55.1 µg/mL; for `CCCCNCc1cc2ccccc2o1.Cl` it is 31.7 µg/mL; for `Cc1ccc(NC(=O)CCCN2C(=S)NC(C)(C)CC2C)cc1` (stereo not drawn) it is 45.5 µg/mL (≈ 136 µM). Compound `O=C(CN1CCN(c2ccc([N+](=O)[O-])cc2)CC1)c1ccccc1` displayed a solubility (kinetic) of 22.5 µg/mL (≈ 69.2 µM). To `CCCN=C1CC(C)(C)CC(=O)/C1=C(/O)CCC` belongs 37.5 µg/mL (≈ 149 µM); to `C=CCn1c(O)c(/C(C)=N/N2CCCCCC2)c(=O)[nH]c1=O`, over 46 µg/mL. On to `Cc1ccc(S(=O)(=O)NCCc2ccncc2)cc1C`, for which the solubility (kinetic) was over 43.6 µg/mL. As to `C=CCOc1ccc(/C=C2/C(=O)ON=C2C)cc1OCC`, the kinetic solubility worked out at 28.3 µg/mL (≈ 98.5 µM). The figure for `CCC1(c2ccccc2)NC(=O)N(CC(=O)Nc2ccc(N3CCOCC3)cc2)C1=O` (stereo not drawn) is over 63.4 µg/mL.

`O=C(Nc1ccc2c(c1)OCO2)C(=O)c1c[nH]c2ccccc12` registered a kinetic solubility of 0.7 µg/mL (≈ 2.27 µM). Compound `Cc1ccc2c(c1)C(=O)CCCCC(=O)N2` had a solubility (kinetic) of over 32.6 µg/mL.

As to `CC(C)N(Cc1ccccc1)C(=S)NC1CCCCC1`, the solubility (kinetic) was 13.1 µg/mL (≈ 45.1 µM).

On to `Cc1ccc(-n2c(C)c(C)c3c(NCCCO)ncnc32)cc1`, for which the kinetic solubility is over 46.6 µg/mL. Turning to `Cc1c(C(=O)N/N=C/c2ccoc2)cccc1[N+](=O)[O-]`, the kinetic solubility was over 41 µg/mL. Regarding `O=C(Cn1cc(C(F)(F)F)ccc1=O)N/N=C/c1ccccc1`, the solubility (kinetic) was over 48.5 µg/mL. As for `CCOc1ncccc1C(=O)NCCc1ccc(OC)cc1`, the kinetic solubility is over 45.1 µg/mL.

The values above are taken from PubChem BioAssay AID1996.
